Experimental data from patent US20120184747A1, “ANILINE COMPOUND” (UBE INDUSTRIES, LTD., priority 2009, published 2012).
Structures can show the parent of a compound that is named as a salt. Where two headings read alike, the source gives them in different places.

Legend:
[1] = test system: isolated guinea pig trachea; experiment: Isolated guinea pig trachea relaxation test; details: Cavia porcellus, read-out: Contraction-inhibiting rate (%)
Protocol: The tracheas were isolated from guinea pigs (Hartley, male, age 7 to 9 weeks, supplier: Nippon SLC) followed by cutting as rings containing cartilage. The trachea specimens were suspended in Krebs solution containing 3 μM indomethacin while applying a load of 1.0 g, and changes in tension were measured through an FD pickup (TB-611T, Nippon Kohden). […] After causing the trachea specimen to contract by electrical field stimulation (SEN-3401, Nippon Kohden) and the contractive reaction being stable, a test compound dissolved in dimethylsulfoxide was added to cause the trachea specimen to relax. The inhibiting rate to the contractive reaction before adding the compound was calculated.

[2] = biological target: T1, human EP2 receptor (Homo sapiens, UniProt P43116); experiment: Measurement of EP2 receptor binding action; details: membrane fraction of HEK293 cells expressing human EP2 receptor; [3H]prostaglandin 10 nM; Ki calculated from IC50
T1 construct: host or cells: HEK293 cells
T1 sequence (P43116 whole entry): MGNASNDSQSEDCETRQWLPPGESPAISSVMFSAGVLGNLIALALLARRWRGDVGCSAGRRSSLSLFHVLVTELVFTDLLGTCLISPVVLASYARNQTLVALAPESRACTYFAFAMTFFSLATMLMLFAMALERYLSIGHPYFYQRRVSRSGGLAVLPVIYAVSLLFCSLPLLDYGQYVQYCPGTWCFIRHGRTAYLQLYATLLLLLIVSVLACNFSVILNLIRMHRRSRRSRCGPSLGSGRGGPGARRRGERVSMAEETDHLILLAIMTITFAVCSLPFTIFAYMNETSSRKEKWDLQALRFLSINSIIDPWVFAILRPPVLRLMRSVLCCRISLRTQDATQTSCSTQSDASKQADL
Protocol: Measurement of EP2 receptor binding action was carried out in compliance with the method of Abramovitz et al. (Biochimica et Biophysica Acta, 1483, 285 (2000)). A test compound dissolved in dimethylsulfoxide and [^3H]prostaglandin […] (NET-428, PerkinElmer) (final concentration: 10 nM) were added to a buffer solution (10 mM MES-KOH (pH 6.0), 10 mM MgCl2, 1 mM EDTA) in which was suspended 10 μg of a membrane fraction of HEK293 cells expressing human EP2 receptor (ES-562-M, available from Euroscreen) followed by incubating at 30° C. for 60 minutes. The membrane fraction was recovered on glass fiber filter paper (GF/B, Whatmann) using a cell harvester (M30R, Brandel), and after washing with buffer solution (10 mM MES-KOH (pH 6.0), 10 mM MgCl2), radioactivity was measured with a liquid scintillation analyzer (2000CA, Packard).
Ki=IC50/(1+([^3H]prostaglandin E2 concentration/Kd))
The dissociation constant (Kd value) was calculated by Scatchard analysis.

[3] = biological target: T1, human EP2 receptor; experiment: Measurement of EP2 agonist activity (cAMP in HEK293 cells expressing human EP2 receptor); format: cell-based; details: cAMP increase in HEK293 cells expressing human EP2 receptor, 30 minutes
Protocol: Measurement of EP2 agonist activity was carried out in compliance with the method of Wilson et al. (European Journal of Pharmacology, 501, 49 (2004)). HEK293 cells expressing human EP2 receptor (ES-562-C, available from Euroscreen) were cultured in MEM medium containing 10% FBS and seeded at 2×10^4 cells per well of a 96-well plate. On the following day, the medium was replaced with serumfree MEM medium containing 3-isobutyl-1-methylxanthine (final concentration: 500 μM) and after culturing for 30 minutes, a test compound dissolved in dimethylsulfoxide was added followed by allowing to stand undisturbed in a carbon dioxide incubator. After 30 minutes, the amount of cAMP in the cells was measured with a cAMP Biotrak EIA System kit (available from GE Healthcare Biosciences). The concentration of test compound required to increase the amount of cAMP to 50% of the maximum increase (EC50 value) was calculated by non-linear regression of the test compound concentration and amount of cAMP using EXSAS.

SMILES | inhibition at 10 µM [1] | other results
CNc1ccc(CN(Cc2cccc(NCC(=O)O)n2)S(=O)(=O)c2cccnc2)cc1 [Example 1, {6-[(4-Methylaminobenzyl) (pyridin-3-ylsulfonyl)aminomethyl]pyridin-2-ylamino}-acetic acid] | 95% | –
CCCS(=O)(=O)N(C)c1ccc(CN(Cc2cccc(NCC(=O)O)n2)S(=O)(=O)c2cccnc2)cc1 [Example 2, [6-({4-[Methyl(propylsulfonyl)amino]benzyl}(pyridin-3-ylsulfonyl)aminomethyl)pyridin-2-ylamino]acetic acid] | 86% | –
CC[N+](C)(CC)c1ccc(CN(Cc2cccc(NCC(=O)O)n2)S(=O)(=O)c2cccnc2)cc1 [Example 4, [6-({4-[Diethyl(methyl)ammonio]benzyl}(pyridin-3-ylsulfonyl)aminomethyl)pyridin-2-ylamino]acetic acid hydrochloride] | – | inhibition at 10 µM ([1]; test compound concentration 10 μM, contraction by electrical field stimulation): 81%
CCCC(=O)N(C)c1ccc(CN(Cc2cccc(NCC(=O)O)n2)S(=O)(=O)c2cccnc2)cc1 [Example 5, [6-({4-[Butyryl(methyl)amino]benzyl}(pyridin-3-ylsulfonyl)aminomethyl)pyridin-2-ylamino]acetic acid] | 92% | –
CN(Cc1ccccc1)c1ccc(CN(Cc2cccc(NCC(=O)O)n2)S(=O)(=O)c2cccnc2)cc1 [Example 6, [6-({4-[Benzyl(methyl)amino]benzyl}(pyridin-3-ylsulfonyl)aminomethyl)pyridin-2-ylamino]acetic acid] | 94% | –
CCCCN(C)c1ccc(CN(Cc2cccc(NCC(=O)O)n2)S(=O)(=O)c2ccccn2)cc1 [Example 7, [6-({4-[Butyl(methyl)amino]benzyl}(pyridin-2-ylsulfonyl)aminomethyl)pyridin-2-ylamino]acetic acid] | – | Ki [2]: 10 nM; EC50 [3]: 1.2 nM; inhibition at 0.03 µM [1]: 84%
